Measurements from patent publication US20230151069A1, “Cyclic Peptides” (LIFEARC, priority 2020, published 2023).
Where two headings read alike, the source gives them in different places. Each block holds one molecule with its values, some of them ahead of it. *1 amine or outer side, *2 acyl side, *3 side chain or, on linkers, in order; H or OH if unused. Where a SMILES comes first, the peptide text is derived from it. Bridges are numbered along the chain shown (N, C = ends). CH2 = C([*:1])[*:2]

Legend:
[1] = target: TAP01 (MoG1K) antibody; test: Thioacetal bridged cyclic peptide binding ELISA with TAP01 antibody; design: species or system mouse
Method: (§1) • 1. […] Incubate at 4° C. overnight • 3. Wash the plate (NUNC 384 program) • 4. […] Incubate at RT for 1 hour • 6. Wash the plate (NUNC 384 program) • 7. […] Incubate at 4° C. overnight • 9. Wash the plate (NUNC 384 program) • 10. […] Transfer 30 μL/well onto the assay plate • 12. Incubate at 37° C. for 1 hour • 13. Wash the plate (NUNC 384 program) • 14. […] Incubate at 37° C. for 1 hour 16. Wash the plate (NUNC 384 program) 17. […] Incubate at RT for 10 min in the dark 19.
(§2) Binding to comparators antibodies was also assessed.
(§3) Binding to comparator antibodies was also assessed (FIG. 26).

[2] = tested on: Bapineuzumab; test: Cyclic peptide binding ELISA with comparator antibody Bapineuzumab
Method: as §1, §2, §3

[3] = tested on: BAN2401; test: Cyclic peptide binding ELISA with comparator antibody BAN2401; conditions: FIGS. 7, 22
Method: as §1
(§4) Binding of the TAP01 antibody has been assessed to these thioacetal bridged cyclic peptide variants by ELISA (FIGS. 20-22 and Table 5). Binding to comparators antibodies was also assessed.

[4] = tested on: Solanezumab; test: Cyclic peptide binding ELISA with comparator antibody Solanezumab; conditions: FIGS. 7, 22
Method: as §1, §4

[5] = tested on: 4-42 amyloid peptide; conditions: sera after immunisation with disulphide bridged peptide, ELISA
Method: • 1. […] Wash the plate (NUNC 384 program) • 4. […] Wash the plate (NUNC 384 program) • 7. […] Incubate at 37° C. for 1 hour • 13. Wash the plate (NUNC 384 program) • 14.

[6] = tested on: disulphide bridged 1-14 cyclic peptide 3, 12; conditions: mouse 5 (best immune response), FIG. 8
Method: • 1. […] Incubate at 4° C. overnight • 3. Wash the plate (NUNC 384 program) • 4. […] Incubate at RT for 1 hour • 6. Wash the plate (NUNC 384 program) • 7. […] Incubate at 4° C. overnight • 9. Wash the plate (NUNC 384 program) • 10.

[7] = tested on: pE3-42 amyloid peptide; test: Immunisation with disulphide bridged peptide, sera pE3-42 peptide binding ELISA; assay type: in vivo, mice and rabbits; conditions: sera after immunisation with disulphide bridged peptide
Method: • 1. Coat 384-well plate with 30 μL/well of 100 ng/ml PSL amyloid 1-42 peptide (Human-Peptide Specialty Laboratories-CEM1904161) diluted in carb/bicarb buffer • 2. Incubate at 37° C. for 1 hour • 3. Wash the plate (NUNC 384 program) • 4. […] Incubate at 4° C. overnight • 6. Wash the plate (NUNC 384 program) • 7. […] Transfer 30 μL/well onto the assay plate • 10. Incubate at 37° C. for 1 hour • 11. Wash the plate (NUNC 384 program) • 12. […] Incubate at 37° C. for 1 hour • 14. Wash the plate (NUNC 384 program) • 15. […] Incubate at RT for 10 min in the dark • 17. […] Coat 384-well plate with 30 μL/well of 100 ng/ml PSL amyloid pE3-42 peptide (Human-Peptide Specialty Laboratories-CEM062210 Pyr) diluted in carb/bicarb buffer • 2. Incubate at 37° C. for 1 hour • 3. Wash the plate (NUNC 384 program) • 4. […] Incubate at 4° C. overnight • 6. Wash the plate (NUNC 384 program) • 7. […] Transfer 30 μL/well onto the assay plate • 10. Incubate at 37° C. for 1 hour • 11. Wash the plate (NUNC 384 program) • 12. […] Incubate at 37° C. for 1 hour • 14. Wash the plate (NUNC 384 program) • 15. […] Incubate at RT for 10 min in the dark • 17.

[8] = tested on: ProBioDrug 6_1_6; test: Cyclic peptide binding ELISA with comparator antibody ProBioDrug 6_1_6; conditions: FIG. 7
Method: (§5) • 1. […] Incubate at 4° C. overnight • 3. Wash the plate (NUNC 384 program) • 4. […] Incubate at RT for 1 hour • 6. Wash the plate (NUNC 384 program) • 7. […] Incubate at 4° C. overnight • 9. Wash the plate (NUNC 384 program) • 10. […] Transfer 30 μL/well onto the assay plate • 13. Incubate at 37° C. for 1 hour • 14. Wash the plate (NUNC 384 program) • 15. […] Incubate at 37° C. for 1 hour • 17. Wash the plate (NUNC 384 program) • 18.
as §1
(§6) ProBioDrug 6_1_6 (Deposit No. DSM ACC 2924) and ProBioDrug 24_2_3 (Deposit No. DSM ACC 2926) are described in […].

[9] = tested on: biotinylated cyclised peptide; test: Sera of actively immunised 5XFAD and Tg4-42 mice, binding ELISA to cyclised peptide; assay type: in vivo, mouse; conditions: FIGS. 32 and 33
Method: as §1
Animals (SXFAD and Tg4-42 mice) were immunised with thioacetal bridged cyclic peptide 1-14 and sera were screened for binding to biotinylated cyclised peptide as previously described above.

[10] = Stability comparison of both versions of the constrained cyclic peptide; assay type: physicochemical; conditions: listed as thioacetal bridged peptide
[11] = tested on: thioacetal bridged 1-14 cyclic peptide 3,12; test: Immunisation with thioacetal bridged peptide, sera binding ELISA to thioacetal bridged cyclic peptide; assay type: in vivo, rabbits and mice
Method: as §1

[12] = tested on: ProBioDrug 24_2_3; test: Cyclic peptide binding ELISA with comparator antibody ProBioDrug 24_2_3; conditions: FIG. 7
Method: as §5, §1, §6

[13] = tested on: TAP01 antibody; test: Proline mutated peptide binding to TAP01 antibody using Biacore T200; design: species or system mouse; conditions: Biacore T200, FIG. 23

Molecule: CC(C)[C@H](NC(=O)[C@H](CCC(=O)O)NC(=O)[C@@H]1CSCSC[C@H](N)C(=O)N[C@@H](C)C(=O)N[C@@H](CCC(=O)O)C(=O)N[C@@H](Cc2ccccc2)C(=O)N[C@@H](CCCNC(=N)N)C(=O)N[C@@H](Cc2c[nH]cn2)C(=O)N[C@@H](CC(=O)O)C(=O)N[C@@H](CO)C(=O)NCC(=O)N1)C(=O)N[C@@H](Cc1c[nH]cn1)C(=O)N[C@@H](Cc1c[nH]cn1)C(=O)O [1, 10] (H-CAEFRHDSGCEVHH-OH; linker 1-10 via CH2; N-terminus and C-terminus assumed)
EC50 ([1]; TAP01 (MoG1K) binding to thioacetal bridged cyclic peptide variants, Table 7, read-out: EC50): 12 nM

Molecule: CC(C)[C@H](NC(=O)[C@H](CCC(=O)O)NC(=O)[C@@H]1CSCSC[C@H](N)C(=O)N[C@@H](C)C(=O)N[C@@H](CCC(=O)O)C(=O)N[C@@H](Cc2ccccc2)C(=O)N[C@@H](CCCNC(=N)N)C(=O)N[C@@H](Cc2c[nH]cn2)C(=O)N[C@@H](CC(=O)O)C(=O)N[C@@H](CO)C(=O)NCC(=O)N1)C(=O)N[C@@H](Cc1c[nH]cn1)C(=O)N[C@@H](Cc1c[nH]cn1)C(=O)O [Peptide 1, 10] (H-CAEFRHDSGCEVHH-OH; linker 1-10 via CH2; N-terminus and C-terminus assumed)
EC50 ([1]; TAP01 (MoG1K), FIG. 25, unit inferred, read-out: calculated EC50 value): 12 nM
binding to comparator antibody Bapineuzumab ([2]; FIGS. 7, 22, 26, 34): Binding to the comparator antibody Bapineuzumab was seen

binding to comparator antibody BAN2401 [3]: low affinity
EC50 ([1]; TAP01 (MoG1K) binding to thioacetal bridged cyclic peptide variants, Table 5, read-out: EC50): 1.33 nM
binding to comparator antibody Solanezumab [4]: low affinity
binding to comparator antibody Bapineuzumab ([2]; FIGS. 7, 22, 26, 34): able to bind
Molecule: CC(C)[C@H](NC(=O)[C@H](CCC(=O)O)NC(=O)[C@@H]1CSCSC[C@H](NC(=O)[C@@H](N)CC(=O)O)C(=O)N[C@@H](CCC(=O)O)C(=O)N[C@@H](Cc2ccccc2)C(=O)N[C@@H](CCCNC(=N)N)C(=O)N[C@@H](Cc2c[nH]cn2)C(=O)N[C@@H](CC(=O)O)C(=O)N[C@@H](CO)C(=O)NCC(=O)N1)C(=O)N[C@@H](Cc1c[nH]cn1)C(=O)N[C@@H](Cc1c[nH]cn1)C(=O)O [Peptide 2, 10] (H-DCEFRHDSGCEVHH-OH; linker 2-10 via CH2)
binding to comparator antibody Bapineuzumab ([2]; FIGS. 7, 22, 26, 34, listed as cyclic peptide 2, 10): Binding to the comparator antibody Bapineuzumab was seen

Molecule: DA*CFRHDSGYE*CHH-Biotin (*S—S* bridge) [1-14 cyclic peptide (disulphide bridged)]
sera binding to 4-42 amyloid peptide [5]: Minimal binding
serum titre to the disulphide bridged cyclic peptide [6]: 1/3200
sera binding to pE3-42 amyloid peptide [7]: Minimal binding

Molecule: DAC*FRHDSGYEC*HH-[Cys]- amide (*S—CH2—S* bridged) [1-14 cyclic peptide (thioacetal bridged)]
binding to comparator antibody BAN2401 [3]: None of the comparator antibodies tested were able to bind
binding to comparator antibody ProBioDrug 6_1_6 [8]: None of the comparator antibodies tested were able to bind
binding of TAP01 to the cyclic peptide (hairpin epitope) ([1]; FIG. 7): able to bind
immune response, sera binding to biotinylated cyclised peptide [9]: good immune response
stability compared with disulphide bridged cyclic peptide [10]: more chemically stable
titres of response compared with disulphide bridged peptide ([11]; mice): higher titres
serum titre to thioacetal bridged cyclic peptide ([11]; mice 3 and 4, FIG. 13): 1/24300
serum titre to thioacetal bridged cyclic peptide ([11]; mouse 2, FIG. 13): 1/72900
immune response after immunisation ([11]; rabbits and mice, FIG. 13): immune response was generated
binding to comparator antibody Solanezumab [4]: None of the comparator antibodies tested were able to bind
binding to comparator antibody Bapineuzumab ([2]; FIGS. 7, 22, 26, 34): None of the comparator antibodies tested were able to bind
binding to comparator antibody ProBioDrug 24_2_3 [12]: None of the comparator antibodies tested were able to bind

Molecule: DAPFRHDSGYEVHH (Residue 3 (E to P))
binding to TAP01 antibody [13]: no binding observed

binding to TAP01 antibody [13]: bind in a dose dependant manner
Molecule: PPEFRHDSGYEVHH (Residue 1 and 2 (D to P and A to P))

Molecule: PPPFRHDSGYEVHH (Residue 1, 2 and 3 (D to P and A to P and E to P))
binding to TAP01 antibody [13]: bind in a dose dependant manner
